Measured values reported in US20110021487A1, “CYCLOALKOXY-SUBSTITUTED 4-PHENYL-3,5-DICYANOPYRIDINES AND THEIR USE” (BAYER SCHERING PHARMA AKTIENGESELLSCHAFT, priority 2008, published 2011).

Tests used:
Assay type in all cases: cell-based
[1] = biological target: T1, adenosine A2b receptor (Homo sapiens, UniProt P29275); assay: Indirect determination of adenosine agonism by gene expression (luciferase reporter), A2b cells; conditions: CHO cells stably transfected with A2b receptor cDNA; 50% of maximum stimulation
T1 construct: expressed in transfected cells; host or cells: CHO (Chinese Hamster Ovary)
T1 sequence (P29275 1-332): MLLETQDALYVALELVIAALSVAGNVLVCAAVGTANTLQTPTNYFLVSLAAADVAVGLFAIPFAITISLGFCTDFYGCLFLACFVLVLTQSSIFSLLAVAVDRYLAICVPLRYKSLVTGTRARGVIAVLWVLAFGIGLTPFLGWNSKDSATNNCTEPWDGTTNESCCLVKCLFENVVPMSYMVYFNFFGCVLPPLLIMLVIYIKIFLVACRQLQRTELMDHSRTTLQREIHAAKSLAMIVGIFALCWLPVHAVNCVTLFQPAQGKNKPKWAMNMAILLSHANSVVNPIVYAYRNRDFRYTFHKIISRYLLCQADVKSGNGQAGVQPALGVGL
Description: (§1) Cells of the CHO (Chinese Hamster Ovary) permanent cell line are transfected stably with the cDNA for the adenosine receptor subtypes A1, A2a and A2b. The adenosine A1 receptors are coupled to the adenylate cyclase by way of Gi proteins, while the adenosine A2a and A2b receptors are coupled by way of Gs proteins. In correspondence with this, the formation of cAMP in the cell is inhibited or stimulated, respectively. After that, expression of the luciferase is modulated by way of a cAMP-dependent promoter. The luciferase test is optimized, with the aim of high sensitivity and reproducibility, low variance and good suitability for implementation on a robot system, by varying several test parameters, such as cell density, duration of the growth phase and the test incubation, forskolin concentration and medium composition. The following test protocol is used for pharmacologically characterizing cells and for the robot-assisted substance screening:
(§2) The stock cultures are grown, at 37° C. and under 5% CO2, in DMEM/F12 medium containing 10% FCS (fetal calf serum) and in each case split 1:10 after 2-3 days. The test cultures are seeded in 384-well plates with 2000 cells per well and grown at 37° C. for approx. 48 hours. The medium is then replaced with a physiological sodium chloride solution (130 mM sodium chloride, 5 mM potassium chloride, 2 mM calcium chloride, 20 mM HEPES, 1 mM magnesium chloride hexahydrate, 5 mM sodium bicarbonate, pH 7.4). The substances to be tested, which are dissolved in DMSO, are pipetted into the test cultures (maximum final concentration of DMSO in the test mixture: 0.5%) in a dilution series of from 5×10^−11M to 3×10^−6M (final concentration). 10 minutes later, forskolin is added to the A1 cells and all the cultures are subsequently incubated at 37° C. for four hours. After that, 35 μl of a solution which is composed of 50% lysis reagent (30 mM disodium hydrogenphosphate, 10% glycerol, 3% TritonX100, 25 mM TrisHCl, 2 mM dithiotreitol (DTT), pH 7.8) and 50% luciferase substrate solution (2.5 mM ATP, 0.5 mM luciferin, 0.1 mM coenzyme A, 10 mM tricine, 1.35 mM magnesium sulfate, 15 mM DTT, pH 7.8) are added to the test cultures, which are shaken for approx. 1 minute and the luciferase activity is measured using a camera system. The EC50 values are determined, i.e., the concentrations at which 50% of the luciferase answer is inhibited in the case of the A1 cell, and, respectively, 50% of the maximum stimulation with the corresponding substance is achieved in the case of the A2b and A2a cells. […] Pharmacol., 357 (1998), 1-9].

[2] = biological target: T2, adenosine A2a receptor (Homo sapiens, UniProt P29274); assay: Indirect determination of adenosine agonism by gene expression (luciferase reporter), A2a cells; conditions: CHO cells stably transfected with A2a receptor cDNA; 50% of maximum stimulation
T2 construct: expressed in transfected cells; host or cells: CHO (Chinese Hamster Ovary)
T2 sequence (P29274 whole entry): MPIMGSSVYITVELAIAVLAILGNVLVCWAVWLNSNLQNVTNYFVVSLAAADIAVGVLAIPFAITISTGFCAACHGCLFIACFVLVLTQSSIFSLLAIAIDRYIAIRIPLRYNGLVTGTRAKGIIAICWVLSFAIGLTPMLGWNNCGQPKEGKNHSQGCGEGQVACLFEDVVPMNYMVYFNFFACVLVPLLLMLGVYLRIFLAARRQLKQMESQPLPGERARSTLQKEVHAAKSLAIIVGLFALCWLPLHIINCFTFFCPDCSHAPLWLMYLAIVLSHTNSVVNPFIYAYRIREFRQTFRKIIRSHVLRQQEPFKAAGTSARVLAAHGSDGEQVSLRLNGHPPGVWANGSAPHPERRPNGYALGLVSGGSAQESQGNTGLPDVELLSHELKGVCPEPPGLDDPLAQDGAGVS
Description: as §1, §2

[3] = biological target: T3, adenosine A1 receptor (Homo sapiens, UniProt P30542); assay: Indirect determination of adenosine agonism by gene expression (luciferase reporter), A1 cells; conditions: CHO cells stably transfected with A1 receptor cDNA; 1 μM forskolin; 50% inhibition of luciferase answer
T3 construct: expressed in transfected cells; host or cells: CHO (Chinese Hamster Ovary)
T3 sequence (P30542 1-326): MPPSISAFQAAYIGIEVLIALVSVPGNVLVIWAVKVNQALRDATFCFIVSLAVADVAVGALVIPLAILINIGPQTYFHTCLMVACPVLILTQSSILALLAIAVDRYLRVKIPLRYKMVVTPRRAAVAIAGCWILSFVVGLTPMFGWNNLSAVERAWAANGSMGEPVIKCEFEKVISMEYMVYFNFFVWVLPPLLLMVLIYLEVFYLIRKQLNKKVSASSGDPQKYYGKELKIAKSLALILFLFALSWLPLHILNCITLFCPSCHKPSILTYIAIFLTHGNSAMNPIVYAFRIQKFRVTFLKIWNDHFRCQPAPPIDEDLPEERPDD
Description: as §1, §2

Row | SMILES | EC50 [1] [nM] | EC50 [2] [nM] | EC50 [3] [nM]
1 | CNC(=O)c1nc(CSc2nc(N)c(C#N)c(-c3ccc(OC4CCOC4)cc3)c2C#N)cs1 (racemic) [Example 51, rac-4-[({6-Amino-3,5-dicyano-4-[4-(tetrahydrofuran-3-yloxy)phenyl]pyridin-2-yl}sulfanyl)methyl]-N-methyl-1,3-thiazole-2-carboxamide] | 177 | 261 | 0.51
2 | N#Cc1c(N)nc(SCc2cscn2)c(C#N)c1-c1ccc(O[C@H]2CCCC[C@@H]2O)cc1 [Example 14] | 16 | 1920 | 56
3 | CC(Sc1nc(N)c(C#N)c(-c2ccc(OC3CCOC3)cc2)c1C#N)c1cccc(C(N)=O)c1 (single isomer, unassigned; ent-3) [Example 66, ent-3-[1-({6-Amino-3,5-dicyano-4-[4-(tetrahydrofuran-3-yloxy)phenyl]pyridin-2-yl}-sulfanyl)ethyl]benzamide] | 1780 | – | 0.53
4 | N#Cc1c(N)nc(SCc2cccc(C(N)=O)c2)c(C#N)c1-c1ccc(OC2CCOC2)cc1 (stereo not shown) [Example 43] | 537 | 424 | 0.16
5 | CNC(=O)c1cc(CSc2nc(N)c(C#N)c(-c3ccc(OC4CCOC4)cc3)c2C#N)ccn1 (stereo not shown) [Example 44] | 234 | 69 | 0.08
6 | N#Cc1c(N)nc(SCc2csc(-c3ccc(Cl)cc3)n2)c(C#N)c1-c1ccc(O[C@H]2COC[C@@H]2O)cc1 (racemic) [Example 24, rac-trans-2-Amino-6-({[2-(4-chlorophenyl)-1,3-thiazol-4-yl]methyl}thio)-4-(4-{[4-hydroxytetrahydrofuran-3-yl]oxy}phenyl)pyridine-3,5-dicarbonitrile] | – | 506 | 0.14
7 | N#Cc1c(N)nc(SCc2cccnc2)c(C#N)c1-c1ccc(O[C@H]2CCCC[C@@H]2O)cc1 [Example 8] | 2.4 | 497 | 6.9
8 | Cc1oc(-c2ccc(C(=O)O)cc2)nc1CSc1nc(N)c(C#N)c(-c2ccc(OC3CCOC3)cc2)c1C#N (racemic) [Example 49, rac-4-{4-[({6-Amino-3,5-dicyano-4-[4-(tetrahydrofuran-3-yloxy)phenyl]pyridin-2-yl}thio)methyl]-5-methyl-1,3-oxazol-2-yl}benzoic acid] | – | 782 | 0.22
9 | N#Cc1c(N)nc(SCc2csc(C(N)=O)n2)c(C#N)c1-c1ccc(OC2CCOC2)cc1 (racemic) [Example 50, rac-4-[({6-Amino-3,5-dicyano-4-[4-(tetrahydrofuran-3-yloxy)phenyl]pyridin-2-yl}sulfanyl)methyl]-1,3-thiazole-2-carboxamide] | 556 | 1100 | 0.78
10 | N#Cc1ccccc1CSc1nc(N)c(C#N)c(-c2ccc(O[C@H]3CCCC[C@@H]3O)cc2)c1C#N (single isomer, unassigned) [Example 23, ent-trans-2-Amino-6-[(2-cyanobenzyl)sulfanyl]-4-(4-{[2-hydroxycyclohexyl]oxy}-phenyl)pyridine-3,5-dicarbonitrile] | 6.9 | 518 | 168
11 | N#Cc1c(N)nc(SCc2c[nH]cn2)c(C#N)c1-c1ccc(O[C@H]2CCCC[C@@H]2O)cc1 [Example 10] | 4.3 | – | 265
12 | N#Cc1c(N)nc(SCc2csc(Nc3ccc(F)cc3)n2)c(C#N)c1-c1ccc(O[C@H]2COC[C@@H]2O)cc1 (single isomer, unassigned) [Example 35, ent-trans-2-Amino-6-[({2-[(4-fluorophenyl)amino]-1,3-thiazol-4-yl}methyl)thio]-4-(4-{[4-hydroxytetrahydrofuran-3-yl]oxy}phenyl)pyridine-3,5-dicarbonitrile] | 43 | 874 | 0.56
13 | COC(=O)c1cccc(C(C)Sc2nc(N)c(C#N)c(-c3ccc(OC4CCOC4)cc3)c2C#N)c1 (single isomer, unassigned; ent-3) [Example 64, Methyl ent-3-[1-({6-amino-3,5-dicyano-4-[4-(tetrahydrofuran-3-yloxy)phenyl]pyridin-2-yl}sulfanyl)ethyl]benzoate] | – | – | 4.1
14 | N#Cc1c(N)nc(SCc2ccccn2)c(C#N)c1-c1ccc(O[C@H]2COC[C@@H]2O)cc1 (single isomer, unassigned) [Example 32, ent-trans-2-Amino-4-(4-{[4-hydroxytetrahydrofuran-3-yl]oxy}phenyl)-6-[(pyridin-2-ylmethyl)thio]pyridine-3,5-dicarbonitrile] | 720 | 144 | 0.86
15 | N#Cc1c(N)nc(SCc2cccnc2)c(C#N)c1-c1ccc(O[C@H]2CCC[C@H]2O)cc1 (racemic) [Example 41, rac-cis-2-Amino-4-(4-{[2-hydroxycyclopentyl]oxy}phenyl)-6-[(pyridin-3-ylmethyl)sulfanyl]pyridine-3,5-dicarbonitrile] | 11 | 480 | 2.9
16 | N#Cc1c(SCc2csc(-c3ccc(Cl)cc3)n2)nc(N2CC(O)C2)c(C#N)c1-c1ccc(O[C@H]2COC[C@@H]2O)cc1 (single isomer, unassigned) [Example 29, ent-trans-2-({[2-(4-Chlorophenyl)-1,3-thiazol-4-yl]methyl}sulfanyl)-6-(3-hydroxyazetidin-1-yl)-4-(4-{[4-hydroxytetrahydrofuran-3-yl]oxy}phenyl)pyridine-3,5-dicarbonitrile] | – | 1270 | 0.18
17 | N#Cc1c(N)nc(SCc2cccc(C(N)=O)c2)c(C#N)c1-c1ccc(OC2CCOC2)c(F)c1 (stereo not shown) [Example 58] | 1010 | 909 | 0.63
18 | N#Cc1c(N)nc(SCc2csc(N)n2)c(C#N)c1-c1ccc(O[C@H]2CCCC[C@@H]2O)cc1 [Example 9] | 3.9 | – | 104
